Source: PubChem BioAssay AID248 (DTP/NCI, 2004)
“And” between values parts separate entries of the source, which are not always exact repeats. Equal values may be shown once. Inconclusive results and toxic doses are left out. Rule as the data show it: active = T/C of 150% or more; inactive = T/C below 125%.

Test system: L1210 leukemia ip in BDF1 mice, survival T/C
Test: NCI In Vivo Anticancer Drug Screen. Data for tumor model L1210 Leukemia (intraperitoneal) in B6D2F1 (BDF1) mice
Settings: endpoint: mean survival time, higher = longer survival
Procedure, shortened: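 In this screen, tumor-bearing mice given compound are compared to those given vehicle, and their survival values are reported as a treated-to-control quotient.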

[1] = dose: 100.0 mg/kg/injection, schedule: Q04DX002 (ip), vehicle: saline with Tween-80
[2] = dose: 200.0 mg/kg/injection, schedule: Q04DX002 (ip), vehicle: saline with Tween-80
[3] = dose: 400.0 mg/kg/injection, schedule: Q04DX002 (ip), vehicle: saline with Tween-80
[4] = dose: 100.0 mg/kg/injection, schedule: Q04DX003 (ip), vehicle: saline
[5] = dose: 200.0 mg/kg/injection, schedule: Q04DX003 (ip), vehicle: saline
[6] = dose: 400.0 mg/kg/injection, schedule: Q04DX003 (ip), vehicle: saline
[7] = dose: 100.0 mg/kg/injection, schedule: Q01DX009 (ip), vehicle: saline
[8] = dose: 200.0 mg/kg/injection, schedule: Q01DX009 (ip), vehicle: saline

Measured: T/C

COc1ccc(OC(=O)Nc2ccc(C)cc2Cl)cc1
inactive: dose: 100.0 mg/kg/injection, schedule: Q01DX009 (ip), vehicle: saline with Tween-80 96 % of control and 104 % of control | [1] 103 % of control and 104 % of control | dose: 200.0 mg/kg/injection, schedule: Q01DX009 (ip), vehicle: saline with Tween-80 97 % of control and 105 % of control | [2] 100 % of control and 107 % of control | dose: 400.0 mg/kg/injection, schedule: Q01DX009 (ip), vehicle: saline with Tween-80 105 % of control and 108 % of control | [3] 96 % of control and 106 % of control

CC(C)(C)OC[CH2][Hg][I]
inactive: dose: 12.5 mg/kg/injection, schedule: Q04DX002 (ip), vehicle: Klucel (hydroxypropylcellulose) (HPC) 96 % of control | dose: 25.0 mg/kg/injection, schedule: Q04DX002 (ip), vehicle: Klucel (hydroxypropylcellulose) (HPC) 104 % of control

[N-]=[N+]=C1N=C(Br)N=C1c1n[nH]c(Br)n1
inactive: dose: 100.0 mg/kg/injection, schedule: Q01DX001 (ip), vehicle: Klucel (hydroxypropylcellulose) (HPC) 98 % of control | dose: 200.0 mg/kg/injection, schedule: Q01DX001 (ip), vehicle: Klucel (hydroxypropylcellulose) (HPC) 109 % of control | dose: 400.0 mg/kg/injection, schedule: Q01DX001 (ip), vehicle: Klucel (hydroxypropylcellulose) (HPC) 102 % of control

O=P(O)(c1ccccc1)c1ccc(I)cc1
inactive: dose: 100.0 mg/kg/injection, schedule: Q01DX001 (ip), vehicle: saline 100 % of control | [4] 100 % of control | dose: 200.0 mg/kg/injection, schedule: Q01DX001 (ip), vehicle: saline 96 % of control | [5] 96 % of control | dose: 400.0 mg/kg/injection, schedule: Q01DX001 (ip), vehicle: saline 98 % of control | [6] 94 % of control

CNC(=O)Oc1ccc(N=Nc2ccccc2)cc1
inactive: dose: 100.0 mg/kg/injection, schedule: Q01DX001 (ip), vehicle: other 96 % of control | dose: 200.0 mg/kg/injection, schedule: Q01DX001 (ip), vehicle: other 96 % of control | dose: 400.0 mg/kg/injection, schedule: Q01DX001 (ip), vehicle: other 96 % of control

COc1ccc(COC(=O)NC2CCCCC2)cc1OC
inactive: dose: 65.0 mg/kg/injection, schedule: Q01DX009 (ip), vehicle: saline 93 % of control | [7] 93 % of control | [4] 112 % of control | dose: 150.0 mg/kg/injection, schedule: Q01DX009 (ip), vehicle: saline 101 % of control | [8] 104 % of control | [5] 118 % of control | dose: 400.0 mg/kg/injection, schedule: Q01DX009 (ip), vehicle: saline 102 % of control | [6] 102 % of control

CCC1OC(C)CC(C)(C)O1 (configuration not stated)
inactive: dose: 50.0 mg/kg/injection, schedule: Q01DX009 (ip), vehicle: saline 96 % of control | [7] 101 % of control | [1] 93 % of control | dose: 100.0 mg/kg/injection, schedule: Q04DX003 (ip), vehicle: acetone 118 % of control | [8] 96 % of control | [2] 97 % of control | dose: 200.0 mg/kg/injection, schedule: Q04DX003 (ip), vehicle: acetone 120 % of control | [3] 101 % of control | dose: 400.0 mg/kg/injection, schedule: Q04DX003 (ip), vehicle: acetone 101 % of control
